Test [1] can be described thus: Fermentation of second milk substrate (milk replacer for calves), pH monitoring. The note with it: incubated at 30° C. As to the method:
(§1) Lactic acid producing bacteria listed in Table 1 were tested for their ability to ferment two milk substrates according to the following procedures:
(§2) A commercially available dried skimmed milk powder was prepared according to the manufacturer's instructions to provide a first milk substrate. A milk replacer for calves (70 g) was mixed with water (100 g) to provide a second milk substrate. Both substrates were placed in a steamer for 30 minutes/day for each of 3 days for sterilisation.
(§3) Each lactic acid producing bacteria was grown in MRS broth (ex Oxoid) for 24 hours at 37° C.
(§4) 100 ml of each milk substrate was inoculated with 100 μl of the culture of each lactic acid producing bacteria. The samples were incubated at 30° C. for 48 hours. The ability of the bacteria to ferment the milk substrate was determined by monitoring the pH at intervals during the incubation of 0, 8, 24, 32 and 48 hours, with a reduction in the pH indicating the production of lactic acid. The results for the first and second milk substrates are set out in Tables 3 and 4 respectively.

Test [2] can be described thus: Fermentation of first milk substrate (dried skimmed milk powder), pH monitoring. The following applies: incubated at 30° C. As to the method: as §1, §2, §3, §4

On to Lactobacillus plantarum [NCIMB 41605], for which the pH in test [1] (0 h) turned out to be 6.13; in test [1] (8 h), 6.46; in test [1] (24 h), 6.51; in test [1] (32 h) it was 5.90; in test [1] (48 h), 5.72; in test [2] (0 h), 6.69. For the same substance, the pH in test [2] (8 h) is reported as 6.65; in test [2] (24 h), 6.09; in test [2] (32 h), 5.22; in test [2] (48 h), 4.60.

As for Lactobacillus plantarum [NCIMB 41607], the pH in test [1] (0 h) amounted to 5.54; in test [1] (8 h), 5.69; in test [1] (24 h) it was 5.75; in test [1] (32 h) it was 5.61; in test [1] (48 h) it was 4.80; in test [2] (0 h) it was 6.69. Besides, the pH in test [2] (8 h) amounted to 6.62; in test [2] (24 h), 5.83; in test [2] (32 h), 5.08; in test [2] (48 h) it was 4.53.

For Lactobacillus plantarum [NCIMB 41608], the pH in test [1] (0 h) turned out to be 6.12; in test [1] (8 h), 6.44; in test [1] (24 h) it was 6.50; in test [1] (32 h) it was 6.25; in test [1] (48 h) it was 5.71; in test [2] (0 h), 6.69. The pH turned out to be 6.65 in test [2] (8 h), 5.85 in test [2] (24 h), 4.96 in test [2] (32 h) and 4.45 in test [2] (48 h).

In the case of “Lactobacillus salivarius ss. Salivarius [NCIMB 41606]”, the pH in test [1] (0 h) is given as 5.82; in test [1] (8 h) it was 6.03; in test [1] (24 h) it was 6.01; in test [1] (32 h) it was 5.92; in test [1] (48 h), 5.37; in test [2] (0 h), 6.69. Further, the pH in test [2] (8 h) amounted to 6.61; in test [2] (24 h), 5.55; in test [2] (32 h), 4.76; in test [2] (48 h) it was 4.35.

Regarding “Lactobacillus salivarius ss. Salivarius [NCIMB 41609]”, the pH in test [1] (0 h) is 5.55; in test [1] (8 h) it was 5.69; in test [1] (24 h) it was 5.70; in test [1] (32 h), 5.58; in test [1] (48 h), 4.93; in test [2] (0 h) it was 6.69. Besides, the pH in test [2] (8 h) was found to be 6.62; in test [2] (24 h) it was 5.72; in test [2] (32 h), 4.98; in test [2] (48 h), 4.56.

On to “Lactobacillus salivarius ss. Salivarius [NCIMB 41610]”, for which the pH was found to be 5.55 in test [1] (0 h); 5.67 in test [1] (8 h); 5.72 in test [1] (24 h); 5.54 in test [1] (32 h); 4.76 in test [1] (48 h); 6.69 in test [2] (0 h). In addition, the pH worked out at 6.68 in test [2] (8 h), 5.69 in test [2] (24 h), 4.96 in test [2] (32 h) and 4.46 in test [2] (48 h).

The record behind these values is patent publication US20130259844A1, “Fermented Foodstuff” (University of Plymouth, priority 2010, published 2013).
